The values that follow come from PubChem BioAssay (NCI).

Test systems include COLO 205 colon; SNB-75 CNS; SK-MEL-28 melanoma; HCT-116 colon; EKVX NSCLC; MOLT-4 leukemia; SK-OV-3 ovarian; SK-MEL-5 melanoma; HOP-92 NSCLC; OVCAR-3 ovarian.
Common to all, as to experiment: DTP human tumour cell line panel, 48 h

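Exposure lasted 48 hours, with cells grown in 96-well plates and compounds tested at five concentrations. GI50 marks 50% less growth. TGI: concentration producing complete growth inhibition.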 Where only a bound is given, the exact number is not on record here.

For the compound `Cc1cc2occ(-c3ccc(Cl)cc3)c2c(=O)o1`, the TGI with COLO 205 colon, in the experiment with SNB-75 CNS, in the experiment with SK-MEL-28 melanoma, in the experiment on HCT-116 colon, in the experiment with EKVX NSCLC and with MOLT-4 leukemia was more than 100 µM in each case. Moreover, the TGI with SK-OV-3 ovarian, with SK-MEL-5 melanoma, in the experiment with HOP-92 NSCLC and in the experiment on OVCAR-3 ovarian was more than 100 µM throughout.

`O=c1oc2ccc(Cl)cc2cc1-c1cn2ccsc2n1`: the TGI with COLO 205 colon was 93.6 µM; in the experiment on SNB-75 CNS it was more than 100 µM; with SK-MEL-28 melanoma it was more than 100 µM; with HCT-116 colon, more than 100 µM; in the experiment on EKVX NSCLC, more than 100 µM; with MOLT-4 leukemia, more than 100 µM. Also, the TGI in the experiment on SK-OV-3 ovarian was more than 100 µM; in the experiment on SK-MEL-5 melanoma, more than 100 µM; in the experiment on HOP-92 NSCLC, 64.3 µM; in the experiment on OVCAR-3 ovarian, more than 100 µM.

`COc1ccc(C=Nc2ccc(-c3nc4ccccc4[nH]3)cc2)cc1OC`: the TGI is more than 100 µM in the experiment on COLO 205 colon; 52.3 µM in the experiment on SNB-75 CNS; more than 100 µM in the experiment on SK-MEL-28 melanoma; more than 100 µM with HCT-116 colon; more than 100 µM in the experiment on EKVX NSCLC; more than 100 µM in the experiment with MOLT-4 leukemia. The TGI in the experiment on SK-OV-3 ovarian, in the experiment on SK-MEL-5 melanoma, in the experiment with HOP-92 NSCLC and in the experiment with OVCAR-3 ovarian was more than 100 µM in each case.

For `CC/C(Cl)=N\OC(=O)Nc1ccc(F)cc1F`, the TGI in the experiment on COLO 205 colon worked out at 3.6 µM; in the experiment on SNB-75 CNS, 47.1 µM; in the experiment on SK-MEL-28 melanoma, 35.9 µM; in the experiment on HCT-116 colon it was 19.1 µM; with EKVX NSCLC it was 20.3 µM; in the experiment on MOLT-4 leukemia it was 4.06 µM. The TGI worked out at 37.4 µM with SK-OV-3 ovarian, 20.6 µM in the experiment with SK-MEL-5 melanoma, 4.34 µM in the experiment with HOP-92 NSCLC and 31.9 µM in the experiment with OVCAR-3 ovarian.

`O=c1c2c(nc3n1CCC3)sc1c(O)c(Br)ccc12`: the TGI was 24.4 µM in the experiment on COLO 205 colon; more than 100 µM with SNB-75 CNS; 34.8 µM in the experiment on SK-MEL-28 melanoma; 35.2 µM in the experiment on HCT-116 colon; 68.6 µM in the experiment with EKVX NSCLC; 55.1 µM in the experiment with MOLT-4 leukemia. The TGI in the experiment on SK-OV-3 ovarian was more than 100 µM; with SK-MEL-5 melanoma it was 30.4 µM; with HOP-92 NSCLC, more than 100 µM; in the experiment on OVCAR-3 ovarian it was 36.7 µM.

For `COc1cc(-n2cc(-c3cc(O)c(C/C=C(\C)CCC=C(C)C)c(O)c3)nn2)cc2c1O[C@]1(C)CC[C@@H](O)C(C)(C)[C@H]1C2`, the GI50 in the experiment with COLO 205 colon is 3.76 µM; in the experiment on SNB-75 CNS, 0.208 µM; in the experiment on SK-MEL-28 melanoma it was 0.754 µM; in the experiment with HCT-116 colon, 1.15 µM; in the experiment with EKVX NSCLC, 2.28 µM; with MOLT-4 leukemia, 0.0671 µM. In addition, the GI50 with SK-OV-3 ovarian is 2.3 µM; in the experiment with SK-MEL-5 melanoma, 1.33 µM; in the experiment with HOP-92 NSCLC it was 1.03 µM; in the experiment on OVCAR-3 ovarian it was 2.58 µM. The TGI in the experiment on COLO 205 colon worked out at 22.2 µM; in the experiment on SNB-75 CNS it was 15 µM; with SK-MEL-28 melanoma, 27.6 µM; in the experiment with HCT-116 colon, 23.5 µM; in the experiment with EKVX NSCLC, 44.1 µM; in the experiment on MOLT-4 leukemia, 1.36 µM. The TGI in the experiment on SK-OV-3 ovarian amounted to 33.3 µM; with SK-MEL-5 melanoma, 5.77 µM; with HOP-92 NSCLC, 17.3 µM; with OVCAR-3 ovarian, 14.3 µM.

For the compound `Cc1cn([C@H]2[C@@H](CO)C[C@H]2O)c(=O)[nH]c1=O`, the TGI with COLO 205 colon, with SNB-75 CNS, with SK-MEL-28 melanoma, with HCT-116 colon, in the experiment on EKVX NSCLC and with MOLT-4 leukemia was more than 100 µM in each case. Besides, the TGI in the experiment with SK-MEL-5 melanoma, with HOP-92 NSCLC and in the experiment with OVCAR-3 ovarian was more than 100 µM in each case.

Consider `COc1ccc(C(=O)c2ccc(-n3cc(/C=C/[N+](=O)[O-])c4ccccc43)cc2)cc1`, for which the TGI in the experiment on COLO 205 colon was more than 63.5 µM; in the experiment with SNB-75 CNS it was more than 100 µM; in the experiment on SK-MEL-28 melanoma, more than 89.2 µM; with HCT-116 colon, 28.2 µM; in the experiment with EKVX NSCLC, 55 µM; with MOLT-4 leukemia, more than 100 µM. Besides, the TGI in the experiment with SK-OV-3 ovarian is more than 71.3 µM; in the experiment with SK-MEL-5 melanoma it was more than 61.9 µM; in the experiment on HOP-92 NSCLC, 34.9 µM; with OVCAR-3 ovarian, 27.1 µM.

`COC(=O)C(NC(=O)CSc1nnc(COc2ccc(Cl)cc2)n1-c1ccccc1)C(C)C` (stereo not drawn): the TGI with COLO 205 colon is 48.6 µM; with SNB-75 CNS it was 38.9 µM; in the experiment on SK-MEL-28 melanoma, 51.6 µM; with HCT-116 colon, 31.4 µM; with EKVX NSCLC, 73.1 µM; with MOLT-4 leukemia, more than 100 µM. The figures for the TGI in the experiment on SK-OV-3 ovarian, in the experiment on HOP-92 NSCLC and with OVCAR-3 ovarian were more than 100 µM, 77.2 µM and 31.5 µM, respectively.

On to `CCOC1=C2NC(Cc3ccc(F)cc3)=NC2C(=O)c2ccccc21` (stereo not drawn), for which the TGI with COLO 205 colon is 87.5 µM; with SNB-75 CNS it was 55.1 µM; in the experiment on SK-MEL-28 melanoma it was 67.8 µM; in the experiment on EKVX NSCLC, 85.7 µM; in the experiment on MOLT-4 leukemia, 46.7 µM; in the experiment with SK-OV-3 ovarian, more than 100 µM. For the same compound, the TGI is 51.6 µM in the experiment with HOP-92 NSCLC and more than 100 µM in the experiment with OVCAR-3 ovarian.

In the case of `O=C1CSc2nnc(CCCCCCCCc3nnc4n3NC(=O)CS4)n2N1`, the TGI in the experiment on COLO 205 colon, in the experiment on SNB-75 CNS, in the experiment on SK-MEL-28 melanoma, in the experiment with HCT-116 colon, with EKVX NSCLC and in the experiment with MOLT-4 leukemia was more than 100 µM in each case. For the same compound, the TGI in the experiment on SK-OV-3 ovarian, in the experiment with HOP-92 NSCLC and in the experiment on OVCAR-3 ovarian was more than 100 µM in each case.

Regarding `Cc1ccc2c(c1)CC1(C2=O)[C@H](c2ccccc2)C2C(=O)c3ccc(C)cc3C2[C@H]1c1ccccc1` (stereo partly drawn), the TGI in the experiment with COLO 205 colon, in the experiment on SNB-75 CNS, in the experiment with SK-MEL-28 melanoma, in the experiment with HCT-116 colon, in the experiment on EKVX NSCLC and in the experiment on MOLT-4 leukemia was more than 100 µM each time. Further, the TGI in the experiment with SK-OV-3 ovarian, in the experiment with HOP-92 NSCLC and in the experiment with OVCAR-3 ovarian was more than 100 µM throughout.

Turning to `COC(=O)c1c(OC)cc2cc3c(c(O)c2c1C)C(=O)C1(O)C(=O)C=C(OC)C(OC(=O)CC(C)N)=C1C3=O` (stereo not drawn), the TGI in the experiment on COLO 205 colon was more than 100 µM; with SNB-75 CNS, 18 µM; in the experiment with SK-MEL-28 melanoma it was more than 100 µM; with HCT-116 colon, more than 100 µM; in the experiment with EKVX NSCLC it was 72.4 µM; in the experiment with MOLT-4 leukemia it was 76.3 µM. The TGI in the experiment with SK-MEL-5 melanoma, with HOP-92 NSCLC and with OVCAR-3 ovarian was more than 100 µM throughout.

The term TGI denotes the concentration giving total growth inhibition. Read a high TGI as less potent growth arrest. One may read the GI50 as the concentration at which growth is held to half of that of the control.
